Columns and labels:
Assay type in all cases: in vivo
[1] = test system: lambsquarters (Chenopodium album); assay: Test C; parameters: key: 0 was no effect; 100 was complete control; details: PREEMERGENCE
[2] = test system: field bindweed (Convolvulus arvensis); assay: Test C; parameters: key: 0 was no effect; 100 was complete control; details: PREEMERGENCE
[3] = test system: common groundsel (Senecio vulgaris); assay: Test E pre-/postemergence/post directed
Excerpt: (§1) Seeds, tubers, or plant parts of alexandergrass (Brachiaria plantaginea), annual bluegrass (Poa annua), arrowleaf sida (Sida rhombifolia), barnyardgrass (Echinochloa crus-galli), bermudagrass (Cynodon dactylon), citrus (Citrus sinensis), common chickweed (Stellaria media), common purslane (Portulaca oleracea), common ragweed (Ambrosia elatior), common groundsel (Senecio vulgaris), dallisgrass (Paspalum dilatatum), goosegrass (Eleusine indica), green foxtail (Setaria viridis), guineagrass (Panicum maximum), itchgrass (Rottboellia exaltata), johnson grass (Sorghum halepense), kochia (Kochia scoparia), large crabgrass (Digitaria sanguinalis), leafy spurge (Euphorbia esula), pitted morningglory (Ipomoea lacunosa), purple nutsedge (Cyperus rotundus), quackgrass (Agropyron repens), Russian thistle (Salsola kali), sandbur (Cenchrus echinatus), sourgrass (Trichachne insularis), Spanishneedles (Bidens bipinnata), sugarcane (Saccharum officinarum), surinam grass (Brachiaria decumbens) and tall mallow (Malva sylvestris) were planted into greenhouse pots of flats containing greenhouse planting medium. Plant species were grown grown in separate pots or individual compartments. Preemergence applications were made within one day of planting the seed or plant part. Postemergence applications were applied when the plants were in the two to four leaf stage (three to twenty cm).
(§2) Test chemicals were formulated in a non-phytotoxic solvent mixture which included a surfactant and applied preemergence to the soil surface, postemergence to the plants or as a post directed spray to plants and soil at the base of the target species. Untreated control plants and treated plants were placed in the greenhouse and visually evaluated for injury 13 to 21 days after herbicide application. Plant response ratings, summarized in Table E, are based on a 0 to 100 scale where 0 is no injury and 100 is complete control. A dash (−) response means no test result.

[4] = test system: alexandergrass (Brachiaria plantaginea); assay: Test E pre-/postemergence/post directed
Excerpt: as §1, §2

[5] = test system: surinam grass (Brachiaria decumbens); assay: Test E pre-/postemergence/post directed
Excerpt: as §1, §2

[6] = test system: common ragweed (Ambrosia elatior); assay: Test C; details: PREEMERGENCE
[7] = test system: johnsongrass (Sorghum halepense); assay: Test C; parameters: key: 0 was no effect; 100 was complete control; details: PREEMERGENCE
[8] = test system: large crabgrass (Digitaria sanguinalis); assay: Test C; parameters: key: 0 was no effect; 100 was complete control; details: PREEMERGENCE
[9] = test system: purple nutsedge (Cyperus rotundus); assay: Test E pre-/postemergence/post directed; parameters: key: 0 is no injury; 100 is complete control
Excerpt: as §1, §2

[10] = test system: sandbur (Cenchrus echinatus); assay: Test E pre-/postemergence/post directed; parameters: key: 0 is no injury; 100 is complete control
Excerpt: as §1, §2

[11] = test system: fall panicum (Panicum dichotomiflorum); assay: Test C; parameters: key: 0 was no effect; 100 was complete control; details: PREEMERGENCE
[12] = test system: wild poinsettia (Euphorbia heterophylla); assay: Test C; parameters: key: 0 was no effect; 100 was complete control; details: PREEMERGENCE
[13] = test system: velvetleaf (Abutilon theophrasti); assay: Test C; details: PREEMERGENCE
[14] = test system: cocklebur (Xanthium strumarium); assay: Test C; parameters: key: 0 was no effect; 100 was complete control; details: PREEMERGENCE
[15] = test system: hairy beggarticks (Bidens pilosa); assay: Test C; parameters: key: 0 was no effect; 100 was complete control; details: PREEMERGENCE

Cc1cnc(-c2ccc(C(F)(F)F)cc2)nc1Cc1cccc(OC(F)(F)F)c1 [Compound 15]
35: Plant response rating, Surinam grass ([5]; POSTEMERGENCE, Rate 125 g/ha) | Plant response rating, Johnsongrass ([7]; Rate 35 g/ha)
40: Plant response rating, Surinam grass ([5]; POSTEMERGENCE, Rate 250 g/ha) | Plant response rating, Fall panicum ([11]; Rate 35 g/ha)
5: Plant response rating, Velvetleaf ([13]; Rate 35 g/ha) | Plant response rating, Cocklebur ([14]; Rate 140 g/ha)
65: Plant response rating, Field bindweed ([2]; Rate 35 g/ha)
80: Plant response rating, Alexandergrass ([4]; PREEMERGENCE, Rate 64 g/ha) | Plant response rating, Fall panicum ([11]; Rate 70 g/ha)
70: Plant response rating, Velvetleaf ([13]; Rate 140 g/ha)
85: Plant response rating, Johnsongrass ([7]; Rate 70 g/ha)
10: Plant response rating, Alexandergrass ([4]; POSTEMERGENCE, Rate 125 g/ha) | Plant response rating, Common ragweed ([6]; Rate 35 g/ha)
0: Plant response rating, Lambsquarters ([1]; Rate 35 g/ha) | Plant response rating, Purple nutsedge ([9]; POSTEMERGENCE, Rate 125 g/ha) | Plant response rating, Purple nutsedge ([9]; POSTEMERGENCE, Rate 250 g/ha) | Plant response rating, Purple nutsedge ([9]; PREEMERGENCE, Rate 32 g/ha) | Plant response rating, Purple nutsedge ([9]; PREEMERGENCE, Rate 64 g/ha) | Plant response rating, Purple nutsedge ([9]; PREEMERGENCE, Rate 125 g/ha) | Plant response rating, Purple nutsedge ([9]; PREEMERGENCE, Rate 250 g/ha) | Plant response rating, Sandbur ([10]; POSTEMERGENCE, Rate 125 g/ha) | Plant response rating, Sandbur ([10]; POSTEMERGENCE, Rate 250 g/ha) | Plant response rating, Wild poinsettia ([12]; Rate 35 g/ha) | Plant response rating, Wild poinsettia ([12]; Rate 70 g/ha) | Plant response rating, Cocklebur ([14]; Rate 35 g/ha) | Plant response rating, Cocklebur ([14]; Rate 70 g/ha)
20: Plant response rating, Lambsquarters ([1]; Rate 70 g/ha) | Plant response rating, Com. groundsel ([3]; POSTEMERGENCE, Rate 250 g/ha) | Plant response rating, Alexandergrass ([4]; POSTEMERGENCE, Rate 250 g/ha) | Plant response rating, Surinam grass ([5]; PREEMERGENCE, Rate 32 g/ha) | Plant response rating, Surinam grass ([5]; PREEMERGENCE, Rate 64 g/ha) | Plant response rating, Common ragweed ([6]; Rate 70 g/ha) | Plant response rating, Wild poinsettia ([12]; Rate 140 g/ha) | Plant response rating, Velvetleaf ([13]; Rate 70 g/ha)
60: Plant response rating, Lambsquarters ([1]; Rate 140 g/ha)
98: Plant response rating, Com. groundsel ([3]; PREEMERGENCE, Rate 64 g/ha)
100: Plant response rating, Field bindweed ([2]; Rate 70 g/ha) | Plant response rating, Field bindweed ([2]; Rate 140 g/ha) | Plant response rating, Johnsongrass ([7]; Rate 140 g/ha) | Plant response rating, Large crabgrass ([8]; Rate 35 g/ha) | Plant response rating, Large crabgrass ([8]; Rate 70 g/ha) | Plant response rating, Large crabgrass ([8]; Rate 140 g/ha) | Plant response rating, Fall panicum ([11]; Rate 140 g/ha)
75: Plant response rating, Alexandergrass ([4]; PREEMERGENCE, Rate 32 g/ha) | Plant response rating, Common ragweed ([6]; Rate 140 g/ha)

Cc1cnc(-n2cnc(C(F)(F)F)c2)nc1Cc1cccc(C(F)(F)F)c1 [Compound 44]
40: Plant response rating, Alexandergrass ([4]; PREEMERGENCE, Rate 64 g/ha) | Plant response rating, Alexandergrass ([4]; PREEMERGENCE, Rate 125 g/ha)
98: Plant response rating, Com. groundsel ([3]; PREEMERGENCE, Rate 32 g/ha)
0: Plant response rating, Purple nutsedge ([9]; POSTEMERGENCE, Rate 125 g/ha) | Plant response rating, Purple nutsedge ([9]; POSTEMERGENCE, Rate 250 g/ha) | Plant response rating, Purple nutsedge ([9]; PREEMERGENCE, Rate 32 g/ha) | Plant response rating, Purple nutsedge ([9]; PREEMERGENCE, Rate 64 g/ha) | Plant response rating, Purple nutsedge ([9]; PREEMERGENCE, Rate 125 g/ha) | Plant response rating, Purple nutsedge ([9]; PREEMERGENCE, Rate 250 g/ha) | Plant response rating, Sandbur ([10]; POSTEMERGENCE, Rate 125 g/ha) | Plant response rating, Sandbur ([10]; POSTEMERGENCE, Rate 250 g/ha) | Plant response rating, Sandbur ([10]; PREEMERGENCE, Rate 32 g/ha)
50: Plant response rating, Alexandergrass ([4]; PREEMERGENCE, Rate 250 g/ha)
10: Plant response rating, Com. groundsel ([3]; POSTEMERGENCE, Rate 125 g/ha) | Plant response rating, Com. groundsel ([3]; POSTEMERGENCE, Rate 250 g/ha) | Plant response rating, Alexandergrass ([4]; POSTEMERGENCE, Rate 125 g/ha) | Plant response rating, Alexandergrass ([4]; POSTEMERGENCE, Rate 250 g/ha)

CCc1cnc(-n2ccc(C(F)(F)F)n2)nc1Cc1cccc(C(F)(F)F)c1 [Compound 46]
80: Plant response rating, Common ragweed ([6]; Rate 140 g/ha) | Plant response rating, Large crabgrass ([8]; Rate 35 g/ha) | Plant response rating, Velvetleaf ([13]; Rate 70 g/ha) | Plant response rating, Velvetleaf ([13]; Rate 140 g/ha)
45: Plant response rating, Johnsongrass ([7]; Rate 70 g/ha)
100: Plant response rating, Lambsquarters ([1]; Rate 70 g/ha) | Plant response rating, Lambsquarters ([1]; Rate 140 g/ha) | Plant response rating, H. beggarticks ([15]; Rate 70 g/ha) | Plant response rating, H. beggarticks ([15]; Rate 140 g/ha) | Plant response rating, Field bindweed ([2]; Rate 140 g/ha) | Plant response rating, Large crabgrass ([8]; Rate 70 g/ha) | Plant response rating, Large crabgrass ([8]; Rate 140 g/ha) | Plant response rating, Fall panicum ([11]; Rate 70 g/ha) | Plant response rating, Fall panicum ([11]; Rate 140 g/ha)
70: Plant response rating, Field bindweed ([2]; Rate 70 g/ha)
40: Plant response rating, Surinam grass ([5]; PREEMERGENCE, Rate 125 g/ha)
20: Plant response rating, Common ragweed ([6]; Rate 70 g/ha) | Plant response rating, Wild poinsettia ([12]; Rate 140 g/ha)
60: Plant response rating, Lambsquarters ([1]; Rate 35 g/ha) | Plant response rating, Alexandergrass ([4]; PREEMERGENCE, Rate 125 g/ha) | Plant response rating, Alexandergrass ([4]; PREEMERGENCE, Rate 250 g/ha) | Plant response rating, Fall panicum ([11]; Rate 35 g/ha)
0: Plant response rating, H. beggarticks ([15]; Rate 35 g/ha) | Plant response rating, Purple nutsedge ([9]; PREEMERGENCE, Rate 32 g/ha) | Plant response rating, Purple nutsedge ([9]; PREEMERGENCE, Rate 64 g/ha) | Plant response rating, Purple nutsedge ([9]; PREEMERGENCE, Rate 125 g/ha) | Plant response rating, Purple nutsedge ([9]; PREEMERGENCE, Rate 250 g/ha) | Plant response rating, Sandbur ([10]; PREEMERGENCE, Rate 32 g/ha) | Plant response rating, Wild poinsettia ([12]; Rate 35 g/ha) | Plant response rating, Cocklebur ([14]; Rate 35 g/ha)
50: Plant response rating, Johnsongrass ([7]; Rate 140 g/ha) | Plant response rating, Velvetleaf ([13]; Rate 35 g/ha)
55: Plant response rating, Surinam grass ([5]; PREEMERGENCE, Rate 250 g/ha)
10: Plant response rating, Field bindweed ([2]; Rate 35 g/ha) | Plant response rating, Common ragweed ([6]; Rate 35 g/ha) | Plant response rating, Cocklebur ([14]; Rate 70 g/ha)
5: Plant response rating, Johnsongrass ([7]; Rate 35 g/ha) | Plant response rating, Cocklebur ([14]; Rate 140 g/ha)
15: Plant response rating, Wild poinsettia ([12]; Rate 70 g/ha)
